# Measurements taken from US20100144599A1, “VEGF PATHWAY BLOCKADE” (Bristol-Myers Squibb Company, priority 2007, published 2010).
# Experiments:
# [1] = Bhuyan et al., Cancer Res. 42 (1982); cited from earlier work
# Colo205 colon carcinoma = assay: Tumor inhibition, Colo-205 colon carcinoma xenogeneic s.c. model; type: in vivo, Human; conditions: 60 mg/kg, treatment started at average tumor size 200 mm^3, Kaplan Meier (FIG. 3)
# Protocol: (§1) The anti-tumor effect of Comp-I was compared to bevacizumab treatment in a model of colon (Colo205 colon carcinoma) and brain (U87 glioblastoma) tumors.
# The anti-tumor effect of Comp-I was also compared to treatment with sunitinib and sorafenib in a Colo205 colon carcinoma model. FIG. 3 depicts a Kaplan Meier Survival analysis on the length of time for individual tumors to reach a given size. […] All three compounds were administered at 60 mg/kg.
# [2] = Toxicity study in the Colo205 colon carcinoma model; type: in vivo; conditions: sunitinib 60 mg/kg/day, sorafenib 80 mg/kg/day
# Protocol: An additional study was performed using the Colo205 colon carcinoma model to test the toxicity of sunitinib (60 mg/kg/day), sorafenib (80 mg/kg/day), and Comp-I (30 mg/kg/day) treatment.
# U87 glioblastoma = assay: Tumor inhibition, U87 glioblastoma xenograft model; type: in vivo, Human; conditions: nude male mice, 30 mg/kg Comp-I or 5 mg/kg bevacizumab bi-weekly, 20 days (FIG. 2)
# Protocol: The effect of Comp-I and bevacizumab treatment was assessed in a U87 xenograft model of human glioblastoma (FIG. 2). Briefly, nude male mice, 6-7 weeks of age, were implanted with U87 glioblastoma tumor cells (5×10^6) subcutaneously on the right flank. Tumor growth was monitored 2 times per week using caliper measurement. Drug treatment was initiated after the tumors reached a size of at least 50 mm^3.Tumor growth inhibition over vehicle was greater in Comp-I (56%) as compared to bevacizumab (35%) treatment.
# as §1
Compound,"potency in vitro relative to commonly used anti-cancer drugs, such as doxorubicin, methotrexate and vincristine [1]",tumors remaining under 500 mm^3 (Colo205 colon carcinoma),mice survived [2],Tumor growth inhibition over vehicle (U87 glioblastoma) [%]
COc1c(O)c2c(c3cc(C(=O)N4CCc5c4c(O)c(OC)c4[nH]c(C(=O)N6CC7CC78C6=CC(=O)c6[nH]cc(C)c68)cc54)[nH]c13)CCN2C(N)=O (stereo not drawn) [CC-1065],about 1000 fold,–,–,–
CNC(=O)c1cc(Oc2ccc(NC(=O)Nc3ccc(Cl)c(C(F)(F)F)c3)cc2)ccn1 [sorafenib],–,around 60%,14/15,–
CCN(CC)CCNC(=O)c1c(C)[nH]c(/C=C2\C(=O)Nc3ccc(F)cc32)c1C [sunitinib],–,around 60%,12/15,–
bevacizumab,–,–,–,35
